# Measured values: ChEMBL document CHEMBL1201862, “PubChem BioAssay data set” (2004)
# The source made the active and inactive calls.
# Tests used:
# Genome polyprotein = Genome polyprotein (dengue virus type 2, UniProt P29990); assay: Dengue-2 NS5 methyltransferase inhibitors, primary screen, biochemical, confirmation dose response (AID 588689); format: functional
# [1] = molecular target: T1, Mitochondrial peptide methionine sulfoxide reductase (Bos taurus, UniProt P54149); format: functional;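 further: absorbance read-out, biochemical high-throughput dose-response screen for MsrA inhibitors, confirmatory; recombinant bovine MsrA coupled to E. coli TrxB with NADPH and selenocystamine; potency is for inhibitors of MsrA activity on DMSO substrate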
# T1 sequence (P54149 whole entry): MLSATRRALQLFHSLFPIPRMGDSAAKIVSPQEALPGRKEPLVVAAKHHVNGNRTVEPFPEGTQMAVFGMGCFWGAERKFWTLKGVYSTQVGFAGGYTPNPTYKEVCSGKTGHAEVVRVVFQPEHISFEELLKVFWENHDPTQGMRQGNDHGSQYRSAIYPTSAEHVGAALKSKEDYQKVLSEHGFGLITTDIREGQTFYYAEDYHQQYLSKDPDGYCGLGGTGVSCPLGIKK
# [2] = molecular target: T2, Tyrosyl-DNA phosphodiesterase 2 (Homo sapiens, UniProt O95551); assay: human TDP2 enzyme inhibitors, dose response, biochemical, epi absorbance, IC50 (AID 743297)
# T2 sequence (O95551 whole entry): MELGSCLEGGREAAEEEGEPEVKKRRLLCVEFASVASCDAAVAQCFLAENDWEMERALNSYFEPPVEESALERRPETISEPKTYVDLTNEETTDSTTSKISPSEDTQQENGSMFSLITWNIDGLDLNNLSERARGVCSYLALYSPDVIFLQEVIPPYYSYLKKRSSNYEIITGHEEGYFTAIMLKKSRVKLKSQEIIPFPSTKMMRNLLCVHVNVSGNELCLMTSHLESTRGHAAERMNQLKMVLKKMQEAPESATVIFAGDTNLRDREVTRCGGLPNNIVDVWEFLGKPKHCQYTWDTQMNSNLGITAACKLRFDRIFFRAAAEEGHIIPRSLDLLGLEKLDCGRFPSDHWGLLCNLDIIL
# [3] = molecular target: Nuclear receptor subfamily 5 group A member 2 (Homo sapiens, UniProt O00482); format: functional, cell-based;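 further: HEK293T cells transfected with LRH-1 and a StAR promoter luciferase reporter; potency for inhibitors that lower LRH-1 driven reporter light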
# Steroidogenic factor 1 = Steroidogenic factor 1 (Homo sapiens, UniProt Q13285); assay: Counterscreen for inverse agonists of the liver receptor homolog-1 (LRH-1; NR5A2): Luminescence-based cell-based high throughput dose response assay to identify inverse agonists of the Steroidogenic Factor 1 Nuclear Receptor (SF1; NR5A1).; format: functional
# [4] = StAR promoter reporter inhibition counter-screen, dose response, counter-screen for LRH-1 inverse agonist project, cell-based, luminescence, luciferase reporter (AID 651969); format: functional
# [5] = molecular target: T3, Tyrosine-protein phosphatase non-receptor type 11 (Homo sapiens, UniProt Q06124); assay: SHP2 phosphatase inhibition, dose response, selectivity assay for STEP inhibitor project, biochemical (AID 602367); format: functional; details: read-out: IC50_Mean
# T3 sequence (Q06124 whole entry): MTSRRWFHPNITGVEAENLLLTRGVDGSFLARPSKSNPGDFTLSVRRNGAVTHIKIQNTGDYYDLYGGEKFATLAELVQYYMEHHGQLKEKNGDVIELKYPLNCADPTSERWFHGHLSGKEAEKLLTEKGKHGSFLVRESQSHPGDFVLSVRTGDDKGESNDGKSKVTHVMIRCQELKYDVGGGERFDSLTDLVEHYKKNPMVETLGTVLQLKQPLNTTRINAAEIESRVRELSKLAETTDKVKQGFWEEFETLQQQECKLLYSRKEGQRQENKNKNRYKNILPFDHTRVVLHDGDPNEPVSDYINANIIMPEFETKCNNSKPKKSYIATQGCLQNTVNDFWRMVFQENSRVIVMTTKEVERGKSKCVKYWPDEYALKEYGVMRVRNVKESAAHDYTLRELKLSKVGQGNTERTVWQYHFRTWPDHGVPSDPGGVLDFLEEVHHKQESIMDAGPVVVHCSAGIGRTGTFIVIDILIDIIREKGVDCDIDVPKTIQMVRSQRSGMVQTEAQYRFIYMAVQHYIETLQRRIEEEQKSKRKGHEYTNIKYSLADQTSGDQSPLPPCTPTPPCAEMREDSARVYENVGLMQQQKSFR
# [6] = molecular target: T4, Tyrosine-protein phosphatase non-receptor type 5 (Homo sapiens, UniProt P54829); assay: STEP phosphatase inhibitors, confirmation, biochemical, fluorescence intensity, uHTS hits (AID 602372); format: functional; details: read-out: IC50_Mean
# T4 sequence (P54829 whole entry): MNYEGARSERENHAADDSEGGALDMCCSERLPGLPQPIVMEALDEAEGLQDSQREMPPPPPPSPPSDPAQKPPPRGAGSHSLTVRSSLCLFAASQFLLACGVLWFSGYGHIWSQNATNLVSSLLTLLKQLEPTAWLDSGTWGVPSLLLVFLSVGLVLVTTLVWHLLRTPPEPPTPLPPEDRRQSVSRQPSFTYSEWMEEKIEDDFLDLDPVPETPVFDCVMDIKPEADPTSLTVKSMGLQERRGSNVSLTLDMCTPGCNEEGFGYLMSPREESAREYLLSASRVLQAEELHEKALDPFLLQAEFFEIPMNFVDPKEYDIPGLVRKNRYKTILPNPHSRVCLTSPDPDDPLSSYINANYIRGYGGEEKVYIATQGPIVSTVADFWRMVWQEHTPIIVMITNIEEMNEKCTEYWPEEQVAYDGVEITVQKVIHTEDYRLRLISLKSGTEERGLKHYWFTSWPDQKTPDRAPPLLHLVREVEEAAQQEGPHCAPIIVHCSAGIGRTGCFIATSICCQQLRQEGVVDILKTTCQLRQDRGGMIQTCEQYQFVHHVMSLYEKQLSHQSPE
# [7] = molecular target: Dual specificity protein phosphatase 3 (Homo sapiens, UniProt P51452); assay: VHR phosphatase inhibition, dose response, selectivity assay for STEP inhibitor project, biochemical (AID 602374); format: functional; details: read-out: IC50_Mean
# Interleukin-8 = molecular target: T5, Interleukin-8 (Homo sapiens, UniProt P10145); assay: Dose Response confirmation of uHTS small molecule hits for cystic fibrosis induced NFkb Inhibitors in a PAF-induced IL8 counterscreen.; format: functional; details: read-out: IC50_Mean
# T5 sequence (P10145 whole entry): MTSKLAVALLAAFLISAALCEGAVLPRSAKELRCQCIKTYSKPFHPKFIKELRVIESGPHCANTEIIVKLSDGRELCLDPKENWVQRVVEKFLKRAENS
# [8] = inhibitors of HIV Env-driven cell fusion, dose response, cherry-pick (AID 652057); format: functional, cell-based
# [9] = CEM21 lymphoblast cell cytotoxicity, dose response, cytotoxicity control for viral fusion inhibitor project, CellTiter-Glo luminescence, cherry-picked (AID 652042); format: functional, cell-based;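 further: potency for signal decrease meaning cytotoxicity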
# [10] = ZM109 Env clade C HIV-1 fusion inhibitors, dose response, HeLa effector, CEM target cells, luciferase, cherry-pick (AID 652058); format: functional, cell-based
# [11] = off-target signal loss in HeLa-CEM21 co-culture – HeLa F-luc CTL cells, cherry-picked, counter-screen for HIV-1 Env fusion inhibitor project, dose response (AID 652040); format: functional, cell-based;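 further: potency for signal decrease marking cytotoxic or nonspecific inhibition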
# [12] = inhibitors of clade B AD8 Env fusion, dose response, cell-based, cherry-pick (AID 652062); format: functional;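 further: luciferase signal from cell-cell fusion driven by HIV-1 clade B AD8 Env; potency is for inhibitors of fusion seen as a drop in luminescence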
# P388/ADR = assay: cells; format: functional; details: Mus musculus
# SN12K1 = assay: cells; format: functional; details: Homo sapiens
# P388 = assay: cells; format: functional; details: Mus musculus
# [13] = molecular target: Photoreceptor-specific nuclear receptor (Homo sapiens, UniProt Q9Y5X4); format: functional, cell-based;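 further: CHO-S cells with Gal4-NCOR and VP16-NR2E3 two-hybrid luciferase reporter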
# [14] = molecular target: T6, DNA repair protein RAD52 homolog (Homo sapiens, UniProt P43351); format: functional, biochemical
# T6 sequence (P43351 whole entry): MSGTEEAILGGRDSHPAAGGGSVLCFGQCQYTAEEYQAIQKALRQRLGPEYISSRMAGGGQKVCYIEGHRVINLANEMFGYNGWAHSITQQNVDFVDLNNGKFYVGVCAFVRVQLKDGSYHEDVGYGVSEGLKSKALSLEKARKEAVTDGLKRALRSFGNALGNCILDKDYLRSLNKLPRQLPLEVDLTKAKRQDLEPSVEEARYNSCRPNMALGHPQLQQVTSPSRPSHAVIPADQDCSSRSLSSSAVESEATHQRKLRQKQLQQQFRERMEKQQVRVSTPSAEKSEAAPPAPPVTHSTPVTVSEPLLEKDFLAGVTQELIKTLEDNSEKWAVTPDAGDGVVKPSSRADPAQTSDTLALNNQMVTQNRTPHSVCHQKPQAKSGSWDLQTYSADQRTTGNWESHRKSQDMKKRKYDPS
# [15] = molecular target: T7, Apoptotic protease-activating factor 1 (Homo sapiens, UniProt O14727); assay: SAR analysis of small molecule Activators of Apaf-1 in a Fluorescent assay.; format: functional; details: read-out: EC50_Mean;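 further: caspase-3 cleavage of fluorogenic Rh110 DEVD substrate downstream of apoptosome activation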
# T7 sequence (O14727 whole entry): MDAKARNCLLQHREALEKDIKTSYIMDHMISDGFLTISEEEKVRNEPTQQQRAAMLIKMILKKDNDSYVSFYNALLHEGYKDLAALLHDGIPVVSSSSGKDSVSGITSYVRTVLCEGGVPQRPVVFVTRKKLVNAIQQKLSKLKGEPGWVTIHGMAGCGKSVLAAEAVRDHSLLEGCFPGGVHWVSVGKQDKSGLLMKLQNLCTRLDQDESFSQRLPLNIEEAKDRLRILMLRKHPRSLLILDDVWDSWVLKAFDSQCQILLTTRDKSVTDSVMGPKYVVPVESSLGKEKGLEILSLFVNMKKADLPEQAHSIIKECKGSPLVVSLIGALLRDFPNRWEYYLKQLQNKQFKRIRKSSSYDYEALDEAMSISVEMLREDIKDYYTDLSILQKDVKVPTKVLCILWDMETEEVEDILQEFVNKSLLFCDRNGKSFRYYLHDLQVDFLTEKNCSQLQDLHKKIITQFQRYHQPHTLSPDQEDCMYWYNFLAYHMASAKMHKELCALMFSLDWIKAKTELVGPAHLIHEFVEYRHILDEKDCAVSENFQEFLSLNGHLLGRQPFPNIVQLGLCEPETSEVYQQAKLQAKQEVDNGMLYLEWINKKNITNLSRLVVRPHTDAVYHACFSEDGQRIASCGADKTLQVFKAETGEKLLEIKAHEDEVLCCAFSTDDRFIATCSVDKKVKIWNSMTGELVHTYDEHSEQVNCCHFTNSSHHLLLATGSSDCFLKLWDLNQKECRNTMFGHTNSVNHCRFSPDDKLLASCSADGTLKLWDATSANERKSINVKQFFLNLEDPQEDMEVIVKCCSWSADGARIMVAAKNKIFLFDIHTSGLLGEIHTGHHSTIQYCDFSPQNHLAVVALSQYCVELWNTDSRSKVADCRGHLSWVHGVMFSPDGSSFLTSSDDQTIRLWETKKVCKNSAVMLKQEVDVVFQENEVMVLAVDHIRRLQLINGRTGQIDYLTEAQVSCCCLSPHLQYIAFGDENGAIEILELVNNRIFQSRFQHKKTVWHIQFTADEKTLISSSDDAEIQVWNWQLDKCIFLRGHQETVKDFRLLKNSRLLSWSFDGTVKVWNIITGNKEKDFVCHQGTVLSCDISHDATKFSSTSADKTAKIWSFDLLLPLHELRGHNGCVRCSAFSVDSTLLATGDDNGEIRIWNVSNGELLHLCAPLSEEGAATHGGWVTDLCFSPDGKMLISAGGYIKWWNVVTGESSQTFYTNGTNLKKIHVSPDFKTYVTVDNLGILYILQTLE
# [16] = inhibitors of firefly luciferase expression or activity, dose response, H4 neuroglioma cells, luminescence (AID 1990); format: functional, cell-based
# [17] = Luminescence Cell-Based Dose Response HTS to Identify Inhibitors of 5'UTR Stem-Loop Driven Prion Protein mRNA Translation in H4 Neuroglioblastoma Cells. [Related pubchem assays: 1827 (Project Summary), 1813 (Primary HTS)]; format: functional
# [18] = inhibitors of SNCA 5'UTR-driven reporter translation, confirmation, H4 neuroglioma cells, luminescence (AID 1988); format: functional, cell-based
# Sequence of Nuclear receptor subfamily 5 group A member 2 (O00482 whole entry): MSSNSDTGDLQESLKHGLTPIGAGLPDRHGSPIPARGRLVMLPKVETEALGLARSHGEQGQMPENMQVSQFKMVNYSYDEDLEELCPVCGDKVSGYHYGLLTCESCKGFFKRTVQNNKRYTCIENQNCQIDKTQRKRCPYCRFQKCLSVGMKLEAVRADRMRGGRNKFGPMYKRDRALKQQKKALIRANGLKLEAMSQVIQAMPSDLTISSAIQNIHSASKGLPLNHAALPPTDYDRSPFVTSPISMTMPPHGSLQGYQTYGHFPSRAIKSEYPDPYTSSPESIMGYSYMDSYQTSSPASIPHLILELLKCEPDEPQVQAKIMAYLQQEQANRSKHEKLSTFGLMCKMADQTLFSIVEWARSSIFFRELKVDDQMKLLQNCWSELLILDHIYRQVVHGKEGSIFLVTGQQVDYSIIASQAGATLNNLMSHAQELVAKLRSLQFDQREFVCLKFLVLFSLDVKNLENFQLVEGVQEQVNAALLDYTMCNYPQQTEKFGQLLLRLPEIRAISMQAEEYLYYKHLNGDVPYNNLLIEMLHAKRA
# Sequence of Steroidogenic factor 1 (Q13285 whole entry): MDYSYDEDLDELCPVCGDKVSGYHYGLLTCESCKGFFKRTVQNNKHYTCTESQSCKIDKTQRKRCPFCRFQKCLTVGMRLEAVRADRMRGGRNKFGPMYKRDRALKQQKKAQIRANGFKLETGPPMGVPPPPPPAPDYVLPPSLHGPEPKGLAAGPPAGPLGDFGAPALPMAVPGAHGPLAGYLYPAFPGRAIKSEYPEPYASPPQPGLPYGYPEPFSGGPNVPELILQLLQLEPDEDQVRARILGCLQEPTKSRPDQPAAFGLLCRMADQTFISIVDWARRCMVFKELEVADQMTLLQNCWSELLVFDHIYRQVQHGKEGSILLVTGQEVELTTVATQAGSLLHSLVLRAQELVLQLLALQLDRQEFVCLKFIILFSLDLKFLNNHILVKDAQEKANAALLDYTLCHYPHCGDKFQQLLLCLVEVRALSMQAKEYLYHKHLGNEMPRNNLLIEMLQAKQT
# Sequence of Dual specificity protein phosphatase 3 (P51452 whole entry): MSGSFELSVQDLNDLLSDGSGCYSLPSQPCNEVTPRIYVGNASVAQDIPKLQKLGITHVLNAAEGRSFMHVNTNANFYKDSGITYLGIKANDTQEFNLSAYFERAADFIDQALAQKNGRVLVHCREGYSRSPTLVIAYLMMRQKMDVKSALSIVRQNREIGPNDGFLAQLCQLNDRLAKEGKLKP
# Sequence of Photoreceptor-specific nuclear receptor (Q9Y5X4 whole entry, the tested form may be a part): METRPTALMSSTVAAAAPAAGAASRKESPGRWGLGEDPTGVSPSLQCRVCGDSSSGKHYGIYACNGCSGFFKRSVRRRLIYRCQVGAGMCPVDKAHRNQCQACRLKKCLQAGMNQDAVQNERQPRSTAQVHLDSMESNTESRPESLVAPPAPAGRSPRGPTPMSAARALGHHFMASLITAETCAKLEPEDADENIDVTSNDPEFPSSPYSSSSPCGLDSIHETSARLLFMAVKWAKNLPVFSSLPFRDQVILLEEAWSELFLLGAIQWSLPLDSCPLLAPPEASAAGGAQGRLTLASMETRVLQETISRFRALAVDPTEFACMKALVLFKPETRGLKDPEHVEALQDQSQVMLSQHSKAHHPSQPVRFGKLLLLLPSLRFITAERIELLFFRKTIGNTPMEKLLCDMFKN
# Sequence of Genome polyprotein (P29990 2492-3391 limits assumed): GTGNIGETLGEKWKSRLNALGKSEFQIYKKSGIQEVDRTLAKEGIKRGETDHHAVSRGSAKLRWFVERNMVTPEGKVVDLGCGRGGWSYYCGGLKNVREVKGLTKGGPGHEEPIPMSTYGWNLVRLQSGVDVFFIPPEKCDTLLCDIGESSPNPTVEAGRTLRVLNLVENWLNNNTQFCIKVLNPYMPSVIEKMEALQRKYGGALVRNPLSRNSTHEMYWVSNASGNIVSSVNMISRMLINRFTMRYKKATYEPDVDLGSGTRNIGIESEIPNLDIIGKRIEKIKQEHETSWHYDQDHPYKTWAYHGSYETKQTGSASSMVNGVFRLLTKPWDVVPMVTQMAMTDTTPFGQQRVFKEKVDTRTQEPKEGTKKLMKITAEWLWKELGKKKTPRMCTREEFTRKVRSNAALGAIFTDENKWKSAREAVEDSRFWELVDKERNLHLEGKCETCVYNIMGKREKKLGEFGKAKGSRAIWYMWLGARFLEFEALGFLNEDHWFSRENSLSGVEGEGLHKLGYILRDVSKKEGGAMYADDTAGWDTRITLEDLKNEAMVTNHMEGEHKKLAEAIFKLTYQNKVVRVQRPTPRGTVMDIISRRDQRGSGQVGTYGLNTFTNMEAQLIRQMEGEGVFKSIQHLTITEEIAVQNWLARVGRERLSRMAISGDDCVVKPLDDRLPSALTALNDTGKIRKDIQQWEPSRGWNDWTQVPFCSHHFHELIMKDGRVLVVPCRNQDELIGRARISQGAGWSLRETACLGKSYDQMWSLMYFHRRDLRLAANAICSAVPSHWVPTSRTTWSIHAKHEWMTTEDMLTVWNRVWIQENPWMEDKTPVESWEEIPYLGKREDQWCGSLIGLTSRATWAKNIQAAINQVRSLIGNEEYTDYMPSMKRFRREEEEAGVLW
compound,measurement,setting,value
O=C(O)c1ccc(NC2=C/C(=N/S(=O)(=O)c3cccs3)c3ccccc3C2=O)cc1,IC50,Genome polyprotein,58.1 µM (active)
same,IC50,[1],4.82 µM (active)
same,IC50,[2],0.817 µM (active)
CC(=O)Nc1ccc(Nc2cc([N+](=O)[O-])cc(Cl)[n+]2[O-])cc1,IC50,[3],5.74 µM (active)
same,IC50,Steroidogenic factor 1,1.56 µM (active)
same,IC50,[4],35.9 µM (inactive)
COc1ccc(NC(=S)N2CCC(N(C)CC3CCCO3)CC2)cc1Cl (stereo unspecified),IC50,[5],3.65 µM (active)
same,IC50,[6],27.2 µM (inactive)
same,IC50,[7],1.37 µM (active)
CN(C)C(=O)c1cccc(-c2cnc3sc(NCc4ccc5c(c4)OCO5)nn23)c1,IC50,Interleukin-8,11.8 µM (inactive)
same,AC50,[8],4.47 µM (active)
same,AC50,[9],66.1 µM (active)
same,AC50,[10],4.54 µM (active)
same,AC50,[11],3.03 µM (active)
same,AC50,[12],4.18 µM (active)
COc1cc2c(oc(=O)c3cc(C)cc(OC)c32)c2c(C3OC(C)C(O)C(C)(O)C3O)ccc(O)c12 (stereo unspecified),GI50,P388/ADR,0.219 µM (active)
same,GI50,SN12K1,0.349 µM (active)
same,GI50,P388,0.171 µM (active)
same,IC50,[13],12.7 µM (inactive)
same,AC50,[14],18.8 µM (active)
Cc1csc2c(=O)sc(NC(=O)c3ccco3)nc12,EC50,[15],> 100 µM (inactive)
O=[N+]([O-])c1c(Nc2ccccc2O)cc(N2CCOCC2)c2nonc12,EC50,[16],25.1 µM (active)
same,EC50,[17],30.5 µM (active)
same,EC50,[18],111 µM (active)
same,IC50,[1],67.7 µM (inactive)
CC(Oc1ccc(S(=O)(=O)N2CCCC2)cc1[N+](=O)[O-])C(=O)NC(C)c1ccccc1 (stereo unspecified),IC50,[3],11.8 µM (inactive)
same,IC50,Steroidogenic factor 1,7.26 µM (active)
same,IC50,[4],20.1 µM (inactive)
CC(Cc1ccccc1)C(=O)O (stereo unspecified),EC50,[15],> 100 µM (inactive)
O=C(Cc1ccc(S(=O)(=O)N2CCCC2)s1)Nc1cccc([N+](=O)[O-])c1,IC50,[3],13 µM (inactive)
same,IC50,Steroidogenic factor 1,6.79 µM (active)
same,IC50,[4],35.9 µM (inactive)
Cn1cc(CC(=O)Nc2cccc(C#N)c2)c2ccccc21,IC50,[5],> 80 µM (inactive)
same,IC50,[6],> 80 µM (inactive)
same,IC50,[7],51.9 µM (inactive)
NC(=S)N1OC[C@@H]2COc3ccc4ccccc4c3[C@@H]21,IC50,Interleukin-8,8.34 µM (active)
